Data as given in US8435587B2, “High-potency sweetener composition with long-chain primary aliphatic saturated alcohol and compositions sweetened therewith” (The Coca-Cola Company, priority 2005, dated 2013).

Columns and labels:
[1] = Rate of dissolution of rebaudioside A forms in H2O at 25° C.; format: physicochemical
[2] = format: physicochemical
Experimental: A solution of rebaudioside A (>97% pure by HPLC) was prepared in double distilled water (12.5 gm in 50 mL, 25% concentration) by stirring the mixture at 40° C. for 5 minutes. An amorphous form of rebaudioside A was formed by immediately using the clear solution for spray drying with the Lab-Plant spray drier SD-04 instrument (Lab-Plant Ltd., West Yorkshire, U.K.). The solution was fed through the feed pump into the nozzle atomizer which atomized it into a spray of droplets with the help of a constant flow of nitrogen/air. […] This dry powder (11-12 g, H2O 6.74%) was discharged continuously from the drying chamber and was collected in a bottle.

[3] = Sensory evaluation of sweetness linger and sugar-like taste by expert panel; format: in vivo; parameters: key: 0: no sweetness linger; 1: very slight sweetness linger; 2: slight sweetness linger; 3: moderate sweetness linger; 4: moderately high sweetness linger; 5: high sweetness linger
Experimental: As used herein, the phrases “sugar-like characteristic,” “sugar-like taste,” “sugar-like sweet,” “sugary,” and “sugar-like” are synonymous. […] These characteristics are dimensions in which the taste of sucrose is different from the tastes of natural and synthetic high-potency sweeteners. Whether or not a characteristic is more sugar-like is determined by expert sensory panel assessments of sugar and compositions comprising at least one natural and/or synthetic high-potency sweetener, both with and without a sweet taste improving composition. Such assessments quantify similarities of the characteristics of compositions comprising at least one natural and/or synthetic high-potency sweetener, both with and without a sweet taste improving composition, with those comprising sugar. Suitable procedures for determining whether a composition has a more sugar-like taste are well known in the art.
In a particular embodiment, a panel of assessors is used to measure the reduction of sweetness linger. […] A decrease in score for a time point measured after the sample has cleared the mouth indicates there has been a reduction in sweetness perception. […]

[4] = Sweetness level as sucrose equivalent

Rate of dissolution in H2O at 25° C. ([1]; H2O, 25° C.)	Rate of dissolution in H2O at 25° C. ([1]; in words)	Solubility in water [2]	Structure (SMILES)	Sweetness linger rating ([3]; control: 400 ppm REBA in citric acid/potassium citrate composition, no additive)	Sweetness linger rating ([3]; control: 500 ppm REBA in carbon-treated water, phosphoric acid pH 2.4-2.5, no additive)	Sucrose equivalent ([4]; 180 ppm rebaudioside A in diluted beverage)	Sucrose equivalent ([4]; 400 ppm REBA)
(<30%/ %/5 minutes	Intermediate		C=C1C[C@@]23CC[C@H]4[C@@](C)(CCC[C@@]4(C)C(=O)O[C@@H]4O[C@H](CO)[C@@H](O)[C@H](O)[C@H]4O)[C@@H]2CC[C@]1(O[C@@H]1O[C@H](CO)[C@@H](O)[C@H](O[C@@H]2O[C@H](CO)[C@@H](O)[C@H](O)[C@H]2O)[C@H]1O[C@@H]1O[C@H](CO)[C@@H](O)[C@H](O)[C@H]1O)C3 [Form 2, rebaudioside A]				
(>30%/ %/5 minutes	High		C=C1C[C@@]23CC[C@H]4[C@@](C)(CCC[C@@]4(C)C(=O)O[C@@H]4O[C@H](CO)[C@@H](O)[C@H](O)[C@H]4O)[C@@H]2CC[C@]1(O[C@@H]1O[C@H](CO)[C@@H](O)[C@H](O[C@@H]2O[C@H](CO)[C@@H](O)[C@H](O)[C@H]2O)[C@H]1O[C@@H]1O[C@H](CO)[C@@H](O)[C@H](O)[C@H]1O)C3 [Form 3, rebaudioside A]				
(>35.0%/ %/5 minutes	High	> 35.0%	C=C1C[C@@]23CC[C@H]4[C@@](C)(CCC[C@@]4(C)C(=O)O[C@@H]4O[C@H](CO)[C@@H](O)[C@H](O)[C@H]4O)[C@@H]2CC[C@]1(O[C@@H]1O[C@H](CO)[C@@H](O)[C@H](O[C@@H]2O[C@H](CO)[C@@H](O)[C@H](O)[C@H]2O)[C@H]1O[C@@H]1O[C@H](CO)[C@@H](O)[C@H](O)[C@H]1O)C3 [Form 4, rebaudioside A]				

More lines, now with the values behind:

Structure (SMILES)	Rate of dissolution in H2O at 25° C. ([1]; H2O, 25° C.)	Rate of dissolution in H2O at 25° C. ([1]; in words)	Solubility in water [2]	Sweetness linger rating ([3]; control: 400 ppm REBA in citric acid/potassium citrate composition, no additive)	Sweetness linger rating ([3]; control: 500 ppm REBA in carbon-treated water, phosphoric acid pH 2.4-2.5, no additive)	Sucrose equivalent ([4]; 180 ppm rebaudioside A in diluted beverage)	Sucrose equivalent ([4]; 400 ppm REBA)
C=C1C[C@@]23CC[C@H]4[C@@](C)(CCC[C@@]4(C)C(=O)O[C@@H]4O[C@H](CO)[C@@H](O)[C@H](O)[C@H]4O)[C@@H]2CC[C@]1(O[C@@H]1O[C@H](CO)[C@@H](O)[C@H](O[C@@H]2O[C@H](CO)[C@@H](O)[C@H](O)[C@H]2O)[C@H]1O[C@@H]1O[C@H](CO)[C@@H](O)[C@H](O)[C@H]1O)C3 [Form 1, rebaudioside A]	(<0.2%/ %/60 minutes	Very low					
C=C1C[C@@]23CC[C@H]4[C@@](C)(CCC[C@@]4(C)C(=O)O[C@@H]4O[C@H](CO)[C@@H](O)[C@H](O)[C@H]4O)[C@@H]2CC[C@]1(O[C@@H]1O[C@H](CO)[C@@H](O)[C@H](O[C@@H]2O[C@H](CO)[C@@H](O)[C@H](O)[C@H]2O)[C@H]1O[C@@H]1O[C@H](CO)[C@@H](O)[C@H](O)[C@H]1O)C3 [REBA, rebaudioside A]				5	5	5 % sucrose	8 g sucrose
